Experimental data as given in patent US10329542B2, “HBV RNAse H purification and enzyme inhibitors” (Saint Louis University, priority 2012, dated 2019).
“Also recorded” adds a separate entry of the source.

Key:
human RNAseH1 = target: T1, human RNAseH1 (Homo sapiens, UniProt O60930); assay: Oligonucleotide-directed RNAseH assay, recombinant human RNAseH1; type: biochemical; conditions: for Inhibition of human RNAseH1: 10 μM, compared directly with HRHPL; for Activity vs. human RNAseH1: class by concentration giving inhibition (10, 20, 60 μM)
T1 construct: hexahistidine (N); made in house; host or cells: E. coli BL21 codon+
T1 sequence (O60930 1-286): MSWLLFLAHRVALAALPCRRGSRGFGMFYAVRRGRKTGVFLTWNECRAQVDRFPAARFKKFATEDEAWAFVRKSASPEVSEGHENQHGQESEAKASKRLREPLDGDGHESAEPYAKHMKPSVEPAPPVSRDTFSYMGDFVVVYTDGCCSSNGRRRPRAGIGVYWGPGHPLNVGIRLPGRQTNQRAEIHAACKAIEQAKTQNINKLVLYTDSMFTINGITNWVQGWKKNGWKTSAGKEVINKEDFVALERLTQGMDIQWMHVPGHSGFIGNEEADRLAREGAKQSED
Procedure, shortened: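 His-tagged human RNAseH1, expressed in E. coli and titrated to an activity matching the HBV enzyme, was incubated with internally 32P-labelled RNA plus a complementary DNA oligonucleotide. Reactions ran for 90 min at 42 °C in 65 mM Tris pH 8.0, 190 mM NaCl and 5 mM MgCl2, with 1% DMSO. Cleavage was measured by SDS-PAGE autoradiography.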

HBV genotype C RNAseH = assay: Oligonucleotide-directed RNAseH cleavage assay, HBV genotype C; type: biochemical, Hepatitis B virus; conditions: class by concentration giving inhibition (10, 20, 60 μM)
Protocol: For the oligonucleotide-directed RNAseH cleavage assay (Gong et al., 2001), 6 μl protein extract (typical protein concentration 2.8 mg/ml) was mixed with 0.5 μg internally ^32P-labeled DRF+ RNA (nucleotides 2401-2605 of the duck HBV genome plus 60 nucleotides of flanking sequences from pBluescript) and 3 μg oligonucleotide D2507- or its corresponding negative control D2526+ on ice in 20 μl under the conditions in Table 1. Some reactions in FIG. 5 employed oligonucleotide D2543M-Sal or its D2453+ negative control as indicated. The reactions were incubated at 42° C. for 90 min. and terminated by addition of Laemmli protein loading buffer and boiling. The samples were resolved by 12% SDS-PAGE, the gels were stained with Coomassie blue to monitor protein loading, and labeled RNA was detected by autoradiography. Candidate inhibitors were dissolved in DMSO and added at the indicated concentrations during assembly of the reactions. Control reactions lacking the compounds contained DMSO as a vehicle control. The RNAseH autoradiograms were scanned and quantified with ImageJ. The oligonucleotides were: D2526+([…]; SEQ ID NO:8), D2507-([…]; SEQ ID NO:9), D2453+([…]; SEQ ID NO:10), and D2543M-Sal ([…]; SEQ ID NO:11).
Incremental improvements were developed in extraction of the HBV RNAseH from the bacterial cell pellets since the data were generated for Examples 1 and 2. Key among these was shifting from using a cup sonicator to a probe sonicator and reducing the duration of the sonication period from 3×60 second bursts to 3×20 second bursts. When the […] genotype C clone that had inconsistent activity under the old extraction conditions (FIG. 6C) was isolated under these conditions, it became consistently and robustly active (FIG. 16).

NCc1ccc(-c2ccc(Cc3cc(=O)n(O)c4ncccc34)cc2)cc1 [Compound 12, napthyridinone]
Inhibition of human RNAseH1 (human RNAseH1): inhibited it weakly | Activity vs. HBV Biochemical vs. gtC (HBV genotype C RNAseH): +++ (+++ inhibition at 10 μM)

Cc1cc(=O)oc2cc(O)c(O)cc12 [Compound 34]
Activity vs. human RNAseH1 (human RNAseH1): + (+ inhibition at 60 μM) | Activity vs. HBV Biochemical vs. gtC (HBV genotype C RNAseH): +++ (+++ inhibition at 10 μM)

CCOc1ccc(-c2c3cc(O)c(=O)cc-3oc3cc(O)c(O)cc23)cc1 [Compound 30]
Activity vs. human RNAseH1 (human RNAseH1): +++ (+++ inhibition at 10 μM) | Activity vs. HBV Biochemical vs. gtC (HBV genotype C RNAseH): ++ (++ inhibition at 20 μM)

COc1cc2c(cc1Cc1cccc(Cl)c1F)c(=O)c(C(=O)O)cn2[C@H](CO)C(C)C [Compound 10, Elvitegravir, reference compound]
Inhibition of human RNAseH1 (human RNAseH1): had no effect on RNAseH1 | Activity vs. human RNAseH1 (human RNAseH1): − (− no inhibition at 60 μM) | Activity vs. HBV Biochemical vs. gtC (HBV genotype C RNAseH): ++ (++ inhibition at 20 μM)

CC(C)c1ccc(O)c(=O)c(O)c1 [Compound 46, beta-thujaplicinol]
Effect on human RNAseH1 (human RNAseH1; 0, 5, or 20 μM): had little effect on the human RNAseH1 | Effect on human RNAseH1 activity (human RNAseH1; 0.02 to 100 μM, listed as βTJ): had no effect on RNAseH1 activity; also recorded: failed to inhibit recombinant human RNAseH1 | Activity vs. human RNAseH1 (human RNAseH1): − (− no inhibition at 60 μM) | Activity vs. HBV Biochemical vs. gtC (HBV genotype C RNAseH): +++ (+++ inhibition at 10 μM)

Cc1c2cc(O)c(=O)cc-2oc2cc(O)c(O)cc12 [Compound 8]
Inhibition of human RNAseH1 (human RNAseH1): inhibited RNAseH1 well | Activity vs. human RNAseH1 (human RNAseH1): +++ (+++ inhibition at 10 μM)

Cc1nnc(C(=O)NC(C)(C)c2nc(C(=O)NCc3ccc(F)cc3)c(O)c(=O)n2C)o1 [Compound 11, Raltegravir, reference compound]
Inhibition of human RNAseH1 (human RNAseH1): had no effect on RNAseH1 | Activity vs. human RNAseH1 (human RNAseH1): − (− no inhibition at 60 μM) | Activity vs. HBV Biochemical vs. gtC (HBV genotype C RNAseH): ++ (++ inhibition at 20 μM)
